Reference: article doi:10.1101/2025.10.24.684335v1 (bioRxiv, 2025)

Tests used:
Assay type in all cases: cell-based, human
[1] = tested on: AKT; experiment: AKT phosphorylation; conditions: normalized to GAPDH
[2] = tested on: ERK; experiment: ERK phosphorylation in hCMEC/D3 monolayers, Western blot; conditions: normalized to GAPDH
[3] = tested on: RAGE; experiment: RAGE expression in hCMEC/D3 membrane fraction, Western blot; conditions: normalized to calnexin
[4] = tested on: claudin-5; experiment: Claudin-5 immunocytochemistry in hCMEC/D3 monolayers, confocal microscopy; conditions: 10 nM butyrate 6 h, 1 μM Aβ42 for the last hour; AF647 immunofluorescence
[5] = 10 nM butyrate 6 h with 50 nM insulin for 5 min, p<0.05

CCCC(=O)O [butyrate, sodium butyrate]
AKT phosphorylation, fold increase vs insulin alone-treated group [1, 5]: 3 fold | ERK phosphorylation, fold increase vs insulin alone-treated group [2, 5]: ~1.3 fold | RAGE expression vs Aβ42 alone (reversal of Aβ42-induced increase) ([3]; butyrate 5 h then co-incubation with 1 μM Aβ42 for 1 h): not significant | Claudin-5 expression vs Aβ42 alone group [4]: increased

Aβ42: unlabeled amyloid beta 42 peptide supplied by Aapptec [reference compound]
RAGE expression, fold increase vs control ([3]; 1 μM Aβ42 for 1 h alone, p<0.05): 2.4 fold

insulin: insulin used at 50 nM to stimulate insulin signaling
AKT phosphorylation vs untreated group ([1]; 50 nM insulin 5 min alone): not statistically significant | ERK phosphorylation, fold increase vs untreated group ([2]; 50 nM insulin 5 min alone, p<0.001): 3 fold
